Source: paper PMC3961306, “Comparison of the Cancer Gene Targeting and Biochemical Selectivities of All Targeted Kinase Inhibitors Approved for Clinical Use” (PLoS ONE, 2014)
Like-named read-outs stand apart in the source and are kept apart here.

Columns and labels:
[1] = molecular target: T1, panel of more than 300 wild-type and mutant kinases (313 kinase panel) (Homo sapiens, UniProt Q16832); assay: Kinase profiling in a biochemical assay panel (mobility shift assays and ELISA), %-inhibition at 1 μM; selectivity entropy; settings: kinase DDR2; compound at 1 μM
T1 sequence (Q16832 22-855): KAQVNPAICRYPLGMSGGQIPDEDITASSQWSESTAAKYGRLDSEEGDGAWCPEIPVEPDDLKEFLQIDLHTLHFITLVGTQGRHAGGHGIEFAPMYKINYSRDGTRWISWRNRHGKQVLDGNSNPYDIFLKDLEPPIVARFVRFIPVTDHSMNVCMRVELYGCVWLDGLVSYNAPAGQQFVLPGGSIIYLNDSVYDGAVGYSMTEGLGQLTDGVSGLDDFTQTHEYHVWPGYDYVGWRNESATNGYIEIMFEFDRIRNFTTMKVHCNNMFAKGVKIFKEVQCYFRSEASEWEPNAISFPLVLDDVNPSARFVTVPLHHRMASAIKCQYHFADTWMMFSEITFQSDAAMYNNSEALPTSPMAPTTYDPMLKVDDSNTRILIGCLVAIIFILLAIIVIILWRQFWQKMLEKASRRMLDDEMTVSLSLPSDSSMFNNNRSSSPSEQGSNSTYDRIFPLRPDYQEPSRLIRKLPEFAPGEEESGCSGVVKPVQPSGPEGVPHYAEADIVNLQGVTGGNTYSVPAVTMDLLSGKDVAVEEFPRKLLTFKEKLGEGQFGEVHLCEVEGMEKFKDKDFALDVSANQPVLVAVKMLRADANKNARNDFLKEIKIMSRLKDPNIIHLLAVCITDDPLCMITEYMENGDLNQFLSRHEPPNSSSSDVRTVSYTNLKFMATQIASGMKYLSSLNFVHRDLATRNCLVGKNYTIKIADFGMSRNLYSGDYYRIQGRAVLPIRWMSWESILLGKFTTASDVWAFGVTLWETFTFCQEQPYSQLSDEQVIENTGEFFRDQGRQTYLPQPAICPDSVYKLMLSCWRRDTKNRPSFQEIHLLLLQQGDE

[2] = molecular target: panel of more than 300 wild-type and mutant kinases (313 kinase panel) (Homo sapiens, UniProt P22612); assay: as above; settings: kinase PKACγ; 1 μM
[3] = molecular target: panel of more than 300 wild-type and mutant kinases (313 kinase panel) (Homo sapiens, UniProt P09619); assay: as above; settings: kinase PDGFRβ; 1 μM
[4] = system: forty-four human cancer cell lines; assay: Cell proliferation assay (ATPlite, 72 hours) in the 44 cell line Oncolines panel; assay type: cell-based; settings: Homo sapiens

## COc1cc(Nc2c(C#N)cnc3cc(OCCCN4CCN(C)CC4)c(OC)cc23)c(Cl)cc1Cl [bosutinib]
[1]
  %-inhibition of DDR2: 96%
[2]
  %-inhibition of PKACγ: 53%
[3]
  %-inhibition of PDGFRβ: 95%
[4]; 4-4 cell, read-out: cell panel IC50, J82
  IC50: 4470 nM
[4]; 4-4 cell, read-out: cell panel IC50, PA-1
  IC50: 1260 nM
[4]; 4-4 cell, read-out: cell panel IC50, SJCRH30
  IC50: 4390 nM
[4]; 4-4 cell, read-out: cell panel IC50, SR
  IC50: 983 nM
[4]; 769-P, read-out: cell panel IC50, 769-P
  IC50: 1240 nM
[4]; 786-0, read-out: cell panel IC50, 786-0
  IC50: 2200 nM
[4]; A 172, read-out: cell panel IC50, A-172
  IC50: 3690 nM
[4]; A204, read-out: cell panel IC50, A-204
  IC50: 5690 nM
[4]; A498, read-out: cell panel IC50, A-498
  IC50: 1510 nM
[4]; A549, read-out: cell panel IC50, A-549
  IC50: 2380 nM
[4]; A-375, read-out: cell panel IC50, A375
  IC50: 2000 nM
[4]; A-427, read-out: cell panel IC50, A-427
  IC50: 2320 nM
[4]; ACHN, read-out: cell panel IC50, ACHN
  IC50: 808 nM
[4]; AN3-CA, read-out: cell panel IC50, AN3 CA
  IC50: 8020 nM
[4]; AU565, read-out: cell panel IC50, AU-565
  IC50: 4030 nM
[4]; BT-20, read-out: cell panel IC50, BT-20
  IC50: 9000 nM
[4]; BT-549, read-out: cell panel IC50, BT-549
  IC50: 4940 nM
[4]; BXPC-3, read-out: cell panel IC50, BxPC-3
  IC50: 2740 nM
[4]; C-33-A, read-out: cell panel IC50, C-33 A
  IC50: 108 nM
[4]; CAL-27, read-out: cell panel IC50, CAL 27
  IC50: 1690 nM
[4]; CCRF-CEM, read-out: cell panel IC50, CCRF-CEM
  IC50: 3550 nM
[4]; DLD-1, read-out: cell panel IC50, DLD-1
  IC50: 2250 nM
[4]; FaDu, read-out: cell panel IC50, FaDu
  IC50: 1930 nM
[4]; HCT-15, read-out: cell panel IC50, HCT-15
  IC50: 2050 nM
[4]; HCT-116, read-out: cell panel IC50, HCT-116
  IC50: 2900 nM
[4]; Hs-578T, read-out: cell panel IC50, Hs 578T
  IC50: 3630 nM
[4]; Jurkat E6.1, read-out: cell panel IC50, Jurkat E6.1
  IC50: 466 nM
[4]; K562, read-out: cell panel IC50, K-562
  IC50: 14 nM
[4]; LS174T, read-out: cell panel IC50, LS 174T
  IC50: 1180 nM
[4]; LoVo, read-out: cell panel IC50, LoVo
  IC50: 811 nM
[4]; MG-63, read-out: cell panel IC50, MG-63
  IC50: 4210 nM
[4]; MOLT-4, read-out: cell panel IC50, MOLT-4
  IC50: 1290 nM
[4]; MeWo, read-out: cell panel IC50, MeWo
  IC50: 5600 nM
[4]; NCI-H82, read-out: cell panel IC50, NCI-H82
  IC50: 3500 nM
[4]; NCI-H460, read-out: cell panel IC50, NCI-H460
  IC50: 3720 nM
[4]; OVCAR-3, read-out: cell panel IC50, OVCAR-3
  IC50: 3030 nM
[4]; RPMI-7951, read-out: cell panel IC50, RPMI-7951
  IC50: 3230 nM
[4]; SHP77, read-out: cell panel IC50, SHP-77
  IC50: 11500 nM
[4]; SK-N-AS, read-out: cell panel IC50, SK-N-AS
  IC50: 923 nM
[4]; SW48, read-out: cell panel IC50, SW48
  IC50: 11700 nM
[4]; SW480, read-out: cell panel IC50, SW480
  IC50: 10500 nM
[4]; SW-620, read-out: cell panel IC50, SW620
  IC50: 10600 nM
[4]; U2OS, read-out: cell panel IC50, U-2 OS
  IC50: 2620 nM
[4]; U-87 MG, 72 h, read-out: IC50 in cell proliferation assay (table S5 cellpanel data)
  IC50: 6950 nM
